The source of these data is BindingDB's records for doi:10.1021/jm030354b (Millennium Pharmaceuticals, 2004).

Experiment [1] in a line: Inhibition of human platelet (h-PRP) aggregation induced by 5 uM TRAP6 with PPACK.
Experiment [2] addresses T1, Integrin alpha-IIb/beta-3 (Homo sapiens, UniProt P08514+P05106). In words: Inhibition of platelet aggregation induced by 20 uM adenosine 5-diphosphate (ADP) in citreated human platelet rich plasma (h-PRP).
Experiment [3] in a line: Inhibition of citreated human (h-PRP) platelet aggregation induced by 5 uM TRAP6.
Experiment [4] deals with T1, Integrin alpha-IIb/beta-3. In words: Inhibition of human platelet (h-PRP) aggregation induced by 20 uM ADP with PPACK.
Experiment [5] can be described thus: Inhibition of human platelet (h-PRP) aggregation induced by 20 uM ADP with PPACK.
Experiment [6] can be described thus: Inhibition of human platelet (h-PRP) aggregation induced by 4 ug/mL collagen with PPACK.
Experiment [7] is described as follows: Inhibition of citreated human platelet (h-PRP) aggregation induced by 4 ug/mL collagen.

SMILES strings stand for the structures.

In general, IC50 refers to the concentration that gives 50% inhibition. The low end stands for inhibition by little substance, the high end for a need for much substance.

T1 sequence (P05106 27-788 limits assumed): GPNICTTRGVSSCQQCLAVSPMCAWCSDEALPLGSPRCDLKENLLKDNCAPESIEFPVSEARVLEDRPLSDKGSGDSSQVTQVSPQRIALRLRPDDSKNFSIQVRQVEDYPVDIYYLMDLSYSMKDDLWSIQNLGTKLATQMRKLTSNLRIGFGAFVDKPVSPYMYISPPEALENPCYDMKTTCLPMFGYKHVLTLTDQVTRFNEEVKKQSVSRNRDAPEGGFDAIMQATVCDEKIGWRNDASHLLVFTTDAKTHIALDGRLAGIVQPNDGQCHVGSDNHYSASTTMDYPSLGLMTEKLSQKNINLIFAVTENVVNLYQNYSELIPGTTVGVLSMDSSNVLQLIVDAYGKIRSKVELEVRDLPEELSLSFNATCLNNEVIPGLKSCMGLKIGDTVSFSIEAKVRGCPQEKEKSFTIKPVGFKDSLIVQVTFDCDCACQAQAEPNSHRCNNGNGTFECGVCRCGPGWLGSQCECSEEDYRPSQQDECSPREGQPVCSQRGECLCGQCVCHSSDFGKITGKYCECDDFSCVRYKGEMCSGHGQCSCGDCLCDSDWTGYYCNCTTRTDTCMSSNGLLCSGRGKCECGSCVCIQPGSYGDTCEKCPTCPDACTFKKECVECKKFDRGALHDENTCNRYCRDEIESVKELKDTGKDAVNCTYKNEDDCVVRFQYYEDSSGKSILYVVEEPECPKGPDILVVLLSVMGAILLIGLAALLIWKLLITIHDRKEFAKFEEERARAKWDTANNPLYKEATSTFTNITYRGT
T1 sequence (P08514 32-887 limits assumed): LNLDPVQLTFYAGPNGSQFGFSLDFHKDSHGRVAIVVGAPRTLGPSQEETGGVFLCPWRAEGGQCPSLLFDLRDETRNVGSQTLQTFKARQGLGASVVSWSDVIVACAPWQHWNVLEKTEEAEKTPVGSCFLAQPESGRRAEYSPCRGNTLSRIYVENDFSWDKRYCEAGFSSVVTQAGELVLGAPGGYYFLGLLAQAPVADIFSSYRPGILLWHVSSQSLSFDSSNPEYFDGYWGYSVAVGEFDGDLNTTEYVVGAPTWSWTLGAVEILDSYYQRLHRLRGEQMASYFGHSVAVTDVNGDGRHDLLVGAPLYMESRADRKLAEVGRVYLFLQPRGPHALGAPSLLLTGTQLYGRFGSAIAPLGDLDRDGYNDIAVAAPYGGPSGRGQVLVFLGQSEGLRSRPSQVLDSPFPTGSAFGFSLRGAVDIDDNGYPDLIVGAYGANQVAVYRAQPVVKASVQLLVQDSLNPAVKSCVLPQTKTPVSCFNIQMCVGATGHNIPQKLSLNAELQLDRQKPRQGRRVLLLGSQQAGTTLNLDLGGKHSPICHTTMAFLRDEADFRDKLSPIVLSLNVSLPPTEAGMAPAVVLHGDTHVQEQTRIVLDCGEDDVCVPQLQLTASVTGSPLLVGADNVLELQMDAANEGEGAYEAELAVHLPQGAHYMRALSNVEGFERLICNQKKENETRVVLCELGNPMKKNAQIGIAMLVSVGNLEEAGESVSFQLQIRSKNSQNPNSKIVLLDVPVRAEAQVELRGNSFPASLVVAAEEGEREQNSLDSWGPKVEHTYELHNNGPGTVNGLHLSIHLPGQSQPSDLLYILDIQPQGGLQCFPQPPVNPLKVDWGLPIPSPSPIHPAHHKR
T1 sequence (P08514 891-1039 limits assumed): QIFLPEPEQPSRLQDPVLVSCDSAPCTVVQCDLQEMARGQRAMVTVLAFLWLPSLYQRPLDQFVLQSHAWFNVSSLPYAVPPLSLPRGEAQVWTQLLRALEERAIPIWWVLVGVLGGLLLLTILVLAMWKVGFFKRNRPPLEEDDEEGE

For `N=C(N)c1ccc(N2CCC3(CCN(C(=O)NCCC(=O)O)CC3)C2=O)cc1` [3-{[2-(4-Carbamimidoyl-phenyl)-1-oxo-2,8-diaza-spiro[4.5]decane-8-carbonyl]-amino}-propionic acid], the concentration for half-maximal inhibition (IC50) amounted to 365 nM in experiment [1], 53 nM in experiment [2], 120 nM in experiment [3] and 110 nM in experiment [4].

In turn, `C[C@@H](CC(=O)O)CC(=O)N1CCC2(CC1)CCN(c1ccc(C(=N)N)cc1)C2=O` [(R)-5-[2-(4-Carbamimidoyl-phenyl)-1-oxo-2,8-diaza-spiro[4.5]dec-8-yl]-3-methyl-5-oxo-pentanoic acid] had an IC50 in experiment [5] of 112 nM.

In the case of `CCOC(=O)CCNC(=O)N[C@H]1CCN(c2ccc(C(=N)N)cc2)C1=O` [SC-57099B], the IC50 in experiment [5] is 137 nM; in experiment [1] it was 362 nM; in experiment [2], 68 nM; in experiment [3], 166 nM.

`CCOC(=O)COC1CCN(C(=O)[C@H](C)NC(=O)c2ccc(C(=N)NO)cc2)CC1` [((S)-1-{2-[4-(N-Hydroxycarbamimidoyl)-benzoylamino]-propionyl}-piperidin-4-yloxy)-acetic acid ethyl ester]: the half-maximal inhibitory concentration (IC50) is 72 nM in experiment [5], 182 nM in experiment [1], 51 nM in experiment [2] and 147 nM in experiment [3].

`N=C(N)c1ccc(N2CCC3(CCN(C(=O)COCC(=O)O)CC3)C2=O)cc1` [{2-[2-(4-Carbamimidoyl-phenyl)-1-oxo-2,8-diaza-spiro[4.5]dec-8-yl]-2-oxo-ethoxy}-acetic acid]: the IC50 in experiment [1] was determined as 691 nM; in experiment [2], 108 nM; in experiment [3], 273 nM; in experiment [6], 812 nM; in experiment [4], 260 nM; in experiment [7] it was 393 nM.

With `N=C(N)c1ccc(N2CCC3(CCN(C(=O)CCCC(=O)O)CC3)C2=O)cc1` [5-[2-(4-Carbamimidoyl-phenyl)-1-oxo-2,8-diaza-spiro[4.5]dec-8-yl]-5-oxo-pentanoic acid], the concentration for half-maximal inhibition (IC50) in experiment [5] is 168 nM; in experiment [1] it was 368 nM; in experiment [2], 54 nM; in experiment [3], 123 nM; in experiment [6], 464 nM; in experiment [7], 175 nM.
